In PubChem BioAssay (NCI):
Values joined by “and” are separate entries in the source; they are usually repeats but may differ in a detail not shown here. Equal entries are not always repeated.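 The compound was tested at five concentrations on cells cultured in 96-well plates, with a 48-hour exposure period. The concentration for 50% growth inhibition is given as GI50. TGI: total growth inhibition.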

Experiments:
Test in all cases: NCI anticancer screen, dose series, 48 h
[1] = test system: IGROV1 ovarian
[2] = test system: CAKI-1 renal
[3] = test system: UACC-62 melanoma
[4] = test system: CCRF-CEM leukemia
[5] = test system: ACHN renal
[6] = test system: OVCAR-4 ovarian
[7] = test system: NCI-H522 lung
[8] = test system: SF-539 CNS
[9] = test system: HCT-116 colon
[10] = test system: SNB-75 CNS

Compound	GI50 [1]	TGI [1] [µM]	GI50 [2] [µM]	TGI [2]	GI50 [3] [µM]	TGI [3]	GI50 [4] [µM]	TGI [4] [µM]	GI50 [5] [µM]	TGI [5] [µM]	GI50 [6] [µM]	TGI [6] [µM]	GI50 [7]	TGI [7] [µM]	GI50 [8] [µM]	TGI [8] [µM]	GI50 [9] [µM]	TGI [9] [µM]	TGI [10] [µM]	GI50 [10] [µM]
CC1(C)OC[C@@H]([C@@]2(CO[Si](C)(C)C(C)(C)C)CC=CC(=O)O2)O1	23.1 µM	49.6	12.2	57.7 µM	19	44.6 µM	26.2	> 100	22.4	51.7	30.7	> 100	30.2 µM	86.2	20.6	42.4	17.6	44.6		
OC(C1=C/C(=C\c2ccncc2)c2ccccc21)c1ccncc1 (stereo not given)		52.4		> 49.5 µM		24 µM		45.9		53.4		> 57.6		31.1		32		28.2	24	
c1ccc(C(=NNc2nc3ccccc3o2)c2ccccn2)nc1	0.0437 µM	11.7	0.0497	7.87 µM and 1.34 µM	0.0863	0.756 µM and 0.413 µM	0.033		0.0395		0.0128		0.0339 µM		0.112		0.0296		24.1	0.397
C[C@@H]1O[C@@H](O[C@@H]2[C@@H](O)[C@H](OCCc3ccc(O)c(O)c3)O[C@H](COC(=O)/C=C/c3ccc(O)c(O)c3)[C@H]2O)[C@H](O)[C@H](O)[C@H]1O	> 100 µM	> 100	98.3	> 100 µM	> 100	> 100 µM			> 100	> 100	> 100	> 100	> 100 µM	> 100	> 100	> 100	36.1	75.3	> 100	> 100
Cc1cc(O)c(C(=O)CC2(O)C(=O)Nc3c(Cl)cc(Cl)cc32)c(=O)o1 (stereo not given)		> 100		> 100 µM		> 100 µM		> 100		> 100		> 100		> 100		> 100		> 100	95.1	
COc1ccc2nc(-c3ccccc3)cc(Nc3ccc(C(C)=O)cc3)c2c1	15.8 µM	> 100			2.31	5.13 µM			2.54	9.79	12.1	> 100	17.7 µM	> 100	2.37	4.21	1.54	4.62	42.5	17.9
S=c1nc(Oc2ccc(Cl)c(Cl)c2)[nH]c(=S)[nH]1		> 92.3		> 100 µM		> 60.3 µM		> 87.5		> 82.2		> 82.2		38.2		> 73.1		> 60.9	> 84.5	
Clc1ccc(-n2nnc(C3=NCCCN3)c2-c2ccccc2)cc1		> 100		> 100 µM		> 100 µM		> 100		> 100		> 100		> 100		> 100		> 100	> 100	
CC(=O)C1CC2(c3ccc(C)cc3)C(c3ccc(C)cc3)=C(c3ccc(C)cc3)C1(c1ccc(C)cc1)S2=O (stereo not given)	70.2 µM	> 100	> 100	> 100 µM	> 100	> 100 µM	> 100	> 100	> 100	> 100	79.9	> 100	> 100 µM	> 100	> 100	> 100	> 100	> 100	> 100	> 100
CC(=O)NC1=C(Nc2ccc(C)cc2)C(=O)c2ccccc2C1=O		50.8		> 75 µM		23 µM		58.4		47.5		46.8				33		48.5	22.6	
N#CC1=C(N)N=C(N2CCCCC2)C(C#N)C12Nc1ccccc1S2 (stereo not given)	58.9 µM	> 100			16.9	49.1 µM			27.1	76.4	37.9	> 100	22.2 µM	56.8	30.7	75.4	23	> 100	> 100	84.1
O=C1CCCCCCCC/C=C/CCC(c2ccco2)O1 (stereo not given)	51.2 µM	> 100	> 100	> 100 µM	26.2	> 100 µM	27	> 100	> 100	> 100			37.7 µM	> 100	60.5	> 100	31.2	> 100	92	23.7
CCOC(=O)Cc1csc(/N=C2\NC(=O)/C(=C3\C(=O)N(C)c4ccccc43)S2)n1	20.6 µM	69.2	23.5	67.9 µM	26.1	83.6 µM	26.1	61.9	35.9	> 100	35.2	> 100	24.8 µM	93.3	43.8	> 100	28.1	60.1		
O=C(Nc1ccc(-n2cc(-c3ccncc3)c(-c3ccc(Cl)c(O)c3)n2)cc1)Nc1cc(C(F)(F)F)cc(C(F)(F)F)c1	2.04 µM	4.45	1.77	3.57 µM	2.23	5.37 µM			2.92	10.3	0.404	3.98			1.94	6.4	1.61	3.14	3.88	1.18
COc1ccc(/C=C\c2cc(OC)c(OC)c(OC)c2)cc1OC(=O)C(N)CCC(=O)O (stereo not given)	0.00415 µM and 0.000539 µM and 0.000824 µM	> 100			0.000597	> 100 µM	0.000576	> 100				> 100	0.00114 µM and 0.000248 µM		0.000814	0.000166	0.000425			
O=C(CNC(=O)OCc1ccccc1)Oc1ccccc1		> 100				> 100 µM		> 100		> 100		> 100		> 100		> 100		> 100	> 100	
C1CNCCNCCNCCN1		> 100				> 100 µM		> 100		> 100				> 100		> 100		> 100	> 100	

Compound	GI50 [1]	TGI [1] [µM]	GI50 [2] [µM]	TGI [2]	GI50 [3] [µM]	TGI [3]	GI50 [4] [µM]	TGI [4] [µM]	GI50 [5] [µM]	TGI [5] [µM]	GI50 [6] [µM]	TGI [6] [µM]	GI50 [7]	TGI [7] [µM]	GI50 [8] [µM]	TGI [8] [µM]	GI50 [9] [µM]	TGI [9] [µM]	TGI [10] [µM]	GI50 [10] [µM]
c1cc2c(cc1C(N1CCNCC1)N1CCNCC1)OCO2		> 100		> 100 µM		> 100 µM				> 100		> 100		> 100		> 100		> 100	> 100	
CCCCCCCCCCC(C)CCCCCCC(=O)OCC(COP(=O)([O-])OCC[N+](C)(C)C)OC(=O)CCCCCCC(C)CCCCCCCCCC (stereo not given)		> 100		> 100 µM		> 100 µM		> 100		> 100		> 100		> 100				> 100	> 100	
COc1ccc(C(=O)C(c2ccc(OC)cc2)C2(O)C(=O)Nc3c(C)cc(Cl)cc32)cc1 (stereo not given)		> 100				54.2 µM		47.7		> 100		> 100		> 100		> 100		> 100	> 100	
CN(C)CC(/C(Cc1ccccc1)=N\NC(=O)c1ccncc1)c1ccccc1 (stereo not given)		> 100		> 100 µM		> 100 µM		> 100		97.7		> 100		> 100		> 100			92.8	
CC1Cc2c(N)nc(NN)nc2NC1=O (stereo not given)		> 100				> 100 µM		> 100		> 100				> 100		> 100		> 100	> 100	
CCOC(=O)/C(=C\c1ccc(OCc2ccccc2)c(OC)c1)C(=O)c1ccccc1		64.6		64.7 µM		48.4 µM		58.5		34.8		> 100		32.6		31.2		31.3		
COc1ccc2c([nH]c3cc(O)c(C)cc32)c1C=O		> 25				> 25 µM		> 25		> 25		> 25		> 25		> 25		> 25		
CC1(CO)OC1COCc1ccccc1 (stereo not given)		> 100				> 100 µM		> 100		> 100						> 100			> 100	
COC(=O)COc1ccc(/C=C2\N=C(c3ccccc3)N(c3cc(C(F)(F)F)ccc3Cl)C2=O)cc1	29.1 µM	> 100	> 100	> 100 µM	> 100	> 100 µM			> 100	> 100	54.8	> 100	24.1 µM	68.8	36	> 100	38.4	> 100	> 100	76.6
Nc1nc(Nc2ccc3c(c2)CC[C@@H](N2CCCC2)CC3)nn1-c1cc2c(nn1)-c1ccccc1CCC2			1.22	2.5 µM	1.89	3.67 µM	0.478	2.53	0.878	2.11	1.44	3.31	1.75 µM	3.79			1.5	3.08	2.48	1.22
C=CC[C@H]1C[C@@]2(C)OC[C@H](C(C)C)N2C1=O		> 100		> 100 µM		> 100 µM		> 100		> 100		> 100				> 100		> 100	> 100	
Fc1ccc(Oc2nccc(-c3c(-c4ccc(F)cc4)ncn3C3CCNCC3)n2)cc1	19.2 µM	> 25	20.5	> 25 µM	> 20.8	> 25 µM			> 25	> 25	> 25	> 25	> 25 µM	> 25	> 25	> 25	> 25	> 25	> 25	> 25
COc1cc(NC(=O)c2cc(OC)c3ccn(C)c3c2)cc2c1C[C@]1(C)CC[C@@H](O)C(C)(C)[C@H]1O2	21.2 µM	> 100			4.31	49.6 µM	3.75	> 100	5.31	> 100	37.6	> 100	20.6 µM	> 100	1.37	18.8	4.02	> 100	40.8	1.89
CC(C)(C)C(=O)Nc1ccccc1I(=O)=O	> 100 µM	> 100	> 100	> 100 µM	> 100	> 100 µM	> 100	> 100	> 100	> 100	> 100	> 100	> 100 µM	> 100	> 100	> 100			> 100	> 100
CCCCCCCCCNCCCCCCCCC	1.89 µM	3.8	1.49	3.09 µM	1.74	3.35 µM			1.76	3.14	1.75	3.78	1.54 µM	3.08	1.9	3.4	1.77	3.16	3.38	1.57
O=C(NC1CC1)c1ccc(-c2nc3ccc4[nH]ncc4c3c3c2CCCC3)cc1	0.989 µM	> 50			2.19	9.77 µM	2.06	> 50	1.03	> 50	4.62	> 50	1.21 µM	9.54	1.32	6.68	1.34	14	4.87	1.54
c1nc2cscc2c2cscc12		> 100		> 100 µM		> 100 µM		> 100		> 100		> 100		> 100		> 100		> 100		
